{"source": "paper PMC3866913", "about": "(Journal of medicinal chemistry, 2013)", "key": {"α2β2-nAChR": {"molecular_target": "α2β2-nAChR (Rattus norvegicus, UniProt P12389+P12390)", "sequence (P12389 28-511)": "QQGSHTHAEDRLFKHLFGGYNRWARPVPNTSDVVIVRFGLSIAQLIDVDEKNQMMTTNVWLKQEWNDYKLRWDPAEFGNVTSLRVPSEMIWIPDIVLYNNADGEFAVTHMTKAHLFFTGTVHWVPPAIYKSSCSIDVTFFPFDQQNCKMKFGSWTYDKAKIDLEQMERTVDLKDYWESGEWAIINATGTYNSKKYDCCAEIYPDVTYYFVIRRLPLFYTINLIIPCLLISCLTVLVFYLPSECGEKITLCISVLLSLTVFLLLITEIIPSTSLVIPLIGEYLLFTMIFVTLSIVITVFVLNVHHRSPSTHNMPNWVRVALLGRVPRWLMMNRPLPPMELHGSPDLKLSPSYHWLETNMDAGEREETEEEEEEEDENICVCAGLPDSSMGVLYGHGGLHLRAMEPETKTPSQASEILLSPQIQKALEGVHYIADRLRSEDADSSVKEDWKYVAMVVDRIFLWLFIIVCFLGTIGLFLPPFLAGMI", "sequence (P12390 25-500)": "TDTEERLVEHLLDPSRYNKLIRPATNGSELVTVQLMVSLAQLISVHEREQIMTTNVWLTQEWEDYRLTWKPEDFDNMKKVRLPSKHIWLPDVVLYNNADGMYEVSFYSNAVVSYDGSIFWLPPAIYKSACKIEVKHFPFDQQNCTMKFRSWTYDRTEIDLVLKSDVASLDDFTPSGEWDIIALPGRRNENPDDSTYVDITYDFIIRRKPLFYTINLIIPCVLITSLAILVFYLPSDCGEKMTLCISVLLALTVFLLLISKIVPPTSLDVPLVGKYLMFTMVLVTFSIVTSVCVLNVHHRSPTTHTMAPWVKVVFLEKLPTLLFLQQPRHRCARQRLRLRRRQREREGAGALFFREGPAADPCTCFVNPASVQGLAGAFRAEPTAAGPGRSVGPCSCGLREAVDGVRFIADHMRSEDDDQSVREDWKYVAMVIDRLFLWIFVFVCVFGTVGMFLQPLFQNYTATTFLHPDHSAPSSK", "assay": "Heteromeric nAChR binding, transfected HEK293 membranes, [3H]epibatidine"}, "[1]": {"assay_type": "in vivo", "conditions": "mice, i.v."}, "α7-nAChR [2]": {"molecular_target": "T1, α7-nAChR (Mus musculus, UniProt P49582)", "T1 sequence (P49582 23-502)": "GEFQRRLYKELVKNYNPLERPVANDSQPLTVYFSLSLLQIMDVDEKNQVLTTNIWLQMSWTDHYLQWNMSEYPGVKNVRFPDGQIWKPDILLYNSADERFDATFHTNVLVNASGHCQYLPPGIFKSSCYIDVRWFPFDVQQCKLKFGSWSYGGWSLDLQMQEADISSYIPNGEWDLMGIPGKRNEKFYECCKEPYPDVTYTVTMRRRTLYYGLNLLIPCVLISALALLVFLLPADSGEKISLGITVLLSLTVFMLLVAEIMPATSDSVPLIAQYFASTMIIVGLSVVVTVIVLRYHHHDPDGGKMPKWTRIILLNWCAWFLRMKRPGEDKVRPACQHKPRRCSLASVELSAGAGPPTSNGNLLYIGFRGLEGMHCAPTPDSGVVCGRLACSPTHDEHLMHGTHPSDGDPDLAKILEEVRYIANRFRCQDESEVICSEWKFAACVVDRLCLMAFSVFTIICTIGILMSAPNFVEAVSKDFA", "set-up": "species or system CD-1 mice", "conditions": "in vivo"}, "α7-nAChR [3]": {"molecular_target": "T1, α7-nAChR", "assay": "Blocking of [18F]7a with non-α7-nAChR CNS drugs in CD-1 mice", "assay_type": "in vivo", "conditions": "2 mg/kg, s.c., 10 min before radiotracer, 90 min after tracer"}, "α7-nAChR [4]": {"molecular_target": "α7-nAChR", "conditions": "read-out: α7-nAChR Ki, cited from earlier work"}, "α7-nAChR [5]": {"molecular_target": "T2, α7-nAChR (Rattus norvegicus, UniProt Q05941)", "T2 sequence (Q05941 23-502)": "as the sequence (P49582 23-502) above, with T402A counted along it", "assay": "biochemical", "assay_type": "binding", "conditions": "two independent assays, each in duplicate"}, "α7-nAChR [6]": {"molecular_target": "T1, α7-nAChR", "conditions": "in vivo"}, "α7-nAChR [7]": {"molecular_target": "T2, α7-nAChR", "conditions": "read-out: KD of radiotracer at α7-nAChR; cited from earlier work"}}, "note": "Read-outs that look alike come from different tables or passages of the source.", "data": [{"compound": "O=S1(=O)c2cc(N3CCN4CCC3CC4)ccc2-c2cccc(F)c21", "note": "[7a, 3-(1,4-Diazabicyclo[3.2.2]nonan-4-yl)-6-fluorodibenzo[b,d]thiophene 5,5-dioxide]", "values": [{"measurement": "Ki", "setting": "α2β2-nAChR; read-out: α2β2 Ki, stably transfected HEK293 cells, [3H]epibatidine 0.5 nM", "result": "> 10000", "unit": "nM"}, {"measurement": "behavioral or locomotor activity changes", "setting": "[1]; 0.3 mg/kg", "result": "Neither behavioral nor locomotor activity changes were observed"}]}, {"compound": "O=S1(=O)c2ccc(F)cc2-c2ccc(N3CCN4CCC3CC4)cc21", "note": "[7c, 7-(1,4-Diazabicyclo[3.2.2]nonan-4-yl)-2-fluorodibenzo[b,d]thiophene 5,5-dioxide]", "values": [{"measurement": "behavioral or locomotor activity changes", "setting": "[1]; 0.2 mg/kg", "result": "Neither behavioral nor locomotor activity changes were observed"}]}, {"compound": "O=S1(=O)c2ccccc2-c2c(N3CCN4CCC3CC4)ccc(F)c21", "note": "[7e, 1-(1,4-Diazabicyclo[3.2.2]nonan-4-yl)-4-fluorodibenzo[b,d]thiophene 5,5-dioxide]", "values": [{"measurement": "Ki", "setting": "α2β2-nAChR", "result": "> 10000", "unit": "nM"}]}, {"compound": "O=C(Oc1ccc(Br)cc1)N1CCN2CCC1CC2", "note": "[compound 1]", "values": [{"measurement": "blockade of [18F]7a binding in mouse brain", "setting": "α7-nAChR [2]", "result": "dose dependent blockade in all regions studied"}, {"measurement": "effect on accumulation of [18F]7a in mouse brain regions", "setting": "α7-nAChR [3]", "result": "reduced accumulation of radioactivity"}, {"measurement": "Ki", "setting": "α7-nAChR [4]; ref [58]", "result": 22, "unit": "nM"}]}, {"compound": "O=S1(=O)c2ccccc2-c2ccc(N3CCN4CCC3CC4)cc21", "note": "[compound 5, 3-(1,4-diazabicyclo[3.2.2]nonan-4-yl)dibenzo[b,d]thiophene 5,5-dioxide]", "values": [{"measurement": "blockade of [18F]7c accumulation in mouse brain", "setting": "α7-nAChR [2]", "result": "Dose dependent blockade"}, {"measurement": "Ki", "setting": "α7-nAChR [4]", "result": 0.023, "unit": "nM"}]}, {"compound": "O=S1(=O)c2cc(N3CCN4CCC3CC4)ccc2-c2cccc(I)c21", "note": "[compound 14, 3-(1,4-Diazabicyclo[3.2.2]nonan-4-yl)-6-iododibenzo[b,d]thiophene 5,5-dioxide]", "values": [{"measurement": "Ki", "setting": "α7-nAChR [5]", "result": 1.93, "unit": "nM"}]}, {"compound": "O=c1cccc2n1C[C@@H]1CNC[C@H]2C1", "note": "[cytisine]", "values": [{"measurement": "blockade of [18F]7a accumulation in mouse brain", "setting": "α7-nAChR [6]", "result": "insignificant reduction of radioactivity accumulation in all regions studied"}]}, {"compound": "CN1CCC[C@H]1c1cccnc1", "note": "[nicotine]", "values": [{"measurement": "blockade of [18F]7a accumulation in mouse brain", "setting": "α7-nAChR [6]", "result": "significant blockade in all regions, except the nAChR-poor cerebellum"}]}, {"compound": "Cc1nccn1CC1CCc2c(c3ccccc3n2C)C1=O", "note": "(centres unmarked) [ondansetron, Ondansetron]", "values": [{"measurement": "effect on accumulation of [18F]7a in mouse brain regions", "setting": "α7-nAChR [3]", "result": "absence of blockade"}]}, {"compound": "[^125I]α-Bungarotoxin", "values": [{"measurement": "Kd", "setting": "α7-nAChR [7]", "result": 0.7, "unit": "nM"}]}]}
